According to article PMC7680422 (European journal of medicinal chemistry, 2020):
Entries after “also recorded” stand apart in the source; their conditions may differ.

Columns and labels:
[1] = Phase I metabolic stability in rat liver microsomes; assay type: in vitro ADME
[2] = target: dopamine transporter (DAT) (Rattus norvegicus, UniProt P23977); assay: DAT binding assay, [3H]WIN35,428, rat striatum membranes
[3] = tested on: methamphetamine self-administration; conditions: short access and long access groups; cited from earlier work
[4] = Phase I metabolic stability in mouse liver microsomes; assay type: in vitro ADME
Swiss Webster mice = assay: Locomotor activity studies in mice; conditions: i.p., doses up to 30 mg/kg, distance travelled

Chain of dopamine transporter (DAT) (P23977 whole entry): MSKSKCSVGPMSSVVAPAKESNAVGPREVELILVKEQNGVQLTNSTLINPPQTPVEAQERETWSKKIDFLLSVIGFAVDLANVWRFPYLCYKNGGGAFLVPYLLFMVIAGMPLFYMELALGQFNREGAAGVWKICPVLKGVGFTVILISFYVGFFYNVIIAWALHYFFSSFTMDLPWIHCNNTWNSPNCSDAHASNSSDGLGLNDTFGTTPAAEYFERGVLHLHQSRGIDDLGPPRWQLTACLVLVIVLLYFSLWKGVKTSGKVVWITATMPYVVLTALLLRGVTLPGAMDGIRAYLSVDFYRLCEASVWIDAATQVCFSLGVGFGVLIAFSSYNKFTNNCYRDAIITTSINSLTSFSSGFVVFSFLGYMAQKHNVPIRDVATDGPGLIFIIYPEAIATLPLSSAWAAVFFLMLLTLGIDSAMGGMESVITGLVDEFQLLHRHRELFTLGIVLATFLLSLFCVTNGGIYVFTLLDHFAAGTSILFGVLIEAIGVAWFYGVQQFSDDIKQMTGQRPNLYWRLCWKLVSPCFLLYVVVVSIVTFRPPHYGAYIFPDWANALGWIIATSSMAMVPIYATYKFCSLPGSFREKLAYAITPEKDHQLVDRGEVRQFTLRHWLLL

Compound: Fc1ccc(CN2CCC(NCCSC(c3ccc(F)cc3)c3ccc(F)cc3)CC2)cc1 [Compound 6b, N-(2-((Bis(4-fluorophenyl)methyl)thio)ethyl)-1-(4-fluorobenzyl)piperidin-4-amine]
- metabolic stability / susceptibility to phase I metabolism (in words) [1]: relatively metabolically stable

Compound: O=C(c1ccccc1)N1CCC(NCCSC(c2ccc(F)cc2)c2ccc(F)cc2)CC1 [Compound 19a, (4-((2-((Bis(4-fluorophenyl)methyl)thio)ethyl)amino)piperidin-1-yl)(phenyl)methanone]
- metabolic stability / susceptibility to phase I metabolism (in words) [1]: less stable; also recorded: susceptibility to phase I metabolism

Compound: O=C(c1ccccc1)N1CCC(NCC[S+]([O-])C(c2ccc(F)cc2)c2ccc(F)cc2)CC1 (stereo not shown) [Compound 21a, (4-((2-((Bis(4-fluorophenyl)methyl)sulfinyl)ethyl)amino)piperidin-1-yl)(phenyl)methanone]
- DAT over SERT selectivity [2]: ~100 fold

Compound: OC(Cc1ccccc1)CN1CCC(NCCSC(c2ccc(F)cc2)c2ccc(F)cc2)CC1 (stereo not shown) [Compound 10, 1-(4-((2-((Bis(4-fluorophenyl)methyl)thio)ethyl)amino)piperidin-1-yl)-3-phenylpropan-2-ol]
- metabolic stability / susceptibility to phase I metabolism (in words) [1]: relatively metabolically stable

Compound: CC(O)CN1CCN(CC[S+]([O-])C(c2ccc(F)cc2)c2ccc(F)cc2)CC1 (stereo not shown) [Compound 1]
- attenuation of methamphetamine self-administration (in words) [3]: effective in attenuating this behavior in both groups

Compound: [O-][S+](CCNC1CCN(CC(O)Cc2ccccc2)CC1)C(c1ccc(F)cc1)c1ccc(F)cc1 (stereo not shown) [Compound 11, 1-(4-((2-((Bis(4-fluorophenyl)methyl)sulfinyl)ethyl)amino)piperidin-1-yl)-3-phenylpropan-2-ol]
- metabolic stability / susceptibility to phase I metabolism (in words) [1]: less stable; also recorded: susceptibility to phase I metabolism

Compound: O=C(c1ccc(F)cc1)N1CCC(NCC[S+]([O-])C(c2ccc(F)cc2)c2ccc(F)cc2)CC1 (stereo not shown) [Compound 21b, (4-((2-((Bis(4-fluorophenyl)methyl)sulfinyl)ethyl)amino)piperidin-1-yl)(4-fluorophenyl)methanone]
- metabolic stability / susceptibility to phase I metabolism (in words) [4]: susceptibility to phase I metabolism; also recorded: significantly less stable
- metabolic stability / susceptibility to phase I metabolism (in words) [1]: relatively metabolically stable
- stimulation of ambulatory activity (in words) (Swiss Webster mice): only minimal stimulation of ambulatory activity

Compound: O=C(c1ccc(F)cc1F)N1CCC(NCCSC(c2ccc(F)cc2)c2ccc(F)cc2)CC1 [Compound 33, (4-((2-((Bis(4-fluorophenyl)methyl)thio)ethyl)amino)piperidin-1-yl)(2,4-difluorophenyl)methanone]
- metabolic stability / susceptibility to phase I metabolism (in words) [4]: susceptibility to phase I metabolism; also recorded: significantly less stable
- stimulation of ambulatory activity (in words) (Swiss Webster mice): only minimal stimulation of ambulatory activity

Compound: COC(=O)[C@H]1[C@@H](OC(=O)c2ccccc2)C[C@@H]2CC[C@H]1N2C [cocaine, reference compound]
- stimulation of ambulatory activity (in words) (Swiss Webster mice): large, significant increase in ambulatory activity

Compound: [O-][S+](CCNC1CCN(Cc2ccc(F)cc2)CC1)C(c1ccc(F)cc1)c1ccc(F)cc1 (stereo not shown) [Compound 7, N-(2-((Bis(4-fluorophenyl)methyl)sulfinyl)ethyl)-1-(4-fluorobenzyl)piperidin-4-amine]
- metabolic stability / susceptibility to phase I metabolism (in words) [4]: susceptibility to phase I metabolism; also recorded: significantly less stable
- metabolic stability / susceptibility to phase I metabolism (in words) [1]: relatively metabolically stable
- stimulation of ambulatory activity (in words) (Swiss Webster mice): only minimal stimulation of ambulatory activity

Compound: [O-][S+](CCN1CCN(CC(O)Cc2ccccc2)CC1)C(c1ccc(F)cc1)c1ccc(F)cc1 (stereo not shown) [Compound 2]
- attenuation of methamphetamine self-administration (in words) [3]: not effective in either rodent population

Compound: OC(CNC1CCN(CCSC(c2ccc(F)cc2)c2ccc(F)cc2)CC1)Cc1ccccc1 (stereo not shown) [Compound 16, 1-((1-(2-((Bis(4-fluorophenyl)methyl)thio)ethyl)piperidin-4-yl)amino)-3-phenylpropan-2-ol]
- metabolic stability / susceptibility to phase I metabolism (in words) [1]: relatively metabolically stable

Compound: CC(O)CN1CCN(CCSC(c2ccc(F)cc2)c2ccc(F)cc2)CC1 (stereo not shown) [Compound 3a]
- attenuation of methamphetamine self-administration (in words) [3]: effective only in the long access group

Compound: O=C(c1ccc(F)cc1)N1CCC(NCCSC(c2ccc(F)cc2)c2ccc(F)cc2)CC1 [Compound 19b, (4-((2-((Bis(4-fluorophenyl)methyl)thio)ethyl)amino)piperidin-1-yl)(4-fluorophenyl)methanone]
- metabolic stability / susceptibility to phase I metabolism (in words) [1]: less stable; also recorded: susceptibility to phase I metabolism
